# Reference: US6737383B1, “Herbicidal oxadiazolidines” (priority 1999, dated 2004)
# Assays:
# [1] = system: bedstraw; test: Test B pre/postemergence bedstraw; type: in vivo, Galium aparine; conditions: Postemergence, Rate 62 g/ha; scale 0 to 10, 0 is no effect, 10 is complete control
# Outline: (§1)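 Response is a visual 0-to-10 score relative to untreated plants, where 0 means no effect and 10 means complete control, taken twelve to sixteen days after application. Treatments went onto soil at planting and onto foliage of 1- to 4-leaf plants, using a surfactant-containing non-phytotoxic solvent.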
# [2] = system: blackgrass; test: Test B pre/postemergence blackgrass; type: in vivo, Alopecurus myosuroides
# Outline: as §1
# [3] = system: surinam grass; test: Test B pre/postemergence surinam grass; type: in vivo, Brachiaria decumbens
# Outline: as §1
# [4] = system: cocklebur; test: Test B pre/postemergence cocklebur; type: in vivo, Xanthium strumarium
# Outline: as §1
# [5] = system: corn; test: Test B pre/postemergence corn; type: in vivo, Zea mays
# Outline: as §1
# [6] = system: crabgrass; test: Test B pre/postemergence crabgrass; type: in vivo, Digitaria sanguinalis
# Outline: as §1
# [7] = system: giant foxtail; test: Test B pre/postemergence giant foxtail; type: in vivo, Setaria faberii
# Outline: as §1
# [8] = system: morningglory; test: Test B pre/postemergence morningglory; type: in vivo, Ipomoea hederacea
# Outline: as §1
# [9] = system: pigweed; test: Test B pre/postemergence pigweed; type: in vivo, Amaranthus retroflexus
# Outline: as §1
# [10] = system: rape; test: Test B pre/postemergence rape; type: in vivo, Brassica napus
# Outline: as §1
# [11] = system: soybean; test: Test B pre/postemergence soybean; type: in vivo, Glycine max
# Outline: as §1
# [12] = system: sugar beet; test: Test B pre/postemergence sugar beet; type: in vivo, Beta vulgaris
# Outline: as §1
# [13] = system: velvetleaf; test: Test B pre/postemergence velvetleaf; type: in vivo, Abutilon theophrasti
# Outline: as §1
# [14] = system: wheat; test: Test B pre/postemergence wheat; type: in vivo, Triticum aestivum
# Outline: as §1
# [15] = system: wild oat; test: Test B pre/postemergence wild oat; type: in vivo, Avena fatua
# Outline: as §1
# [16] = system: purple nutsedge; test: Test B pre/postemergence purple nutsedge; type: in vivo, Cyperus rotundus
# Outline: as §1
# [17] = system: rice; test: Test B flood test rice; type: in vivo, Oryza sativa
# Outline: (§2)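 Each value is a visual injury score relative to controls, with 10 meaning complete control and 0 no effect. Evaluation took place twelve to sixteen days after the 2-leaf-stage plants were treated and kept in the greenhouse.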
# [18] = system: smallflower flatsedge; test: Test B flood test smallflower flatsedge; type: in vivo, Cyperus difformis
# Outline: as §2
# [19] = system: duck salad; test: Test B flood test duck salad; type: in vivo, Heteranthera limosa
# Outline: as §2
# [20] = system: bamyardgrass; test: Test B flood test barnyardgrass; type: in vivo, Echinochloa crus-galli
# Outline: as §2
# [21] = Postemergence, Rate 62 g/ha, scale 0 to 10, 0 is no effect, 10 is complete control
# [22] = Postemergence, Rate 250 g/ha, scale of 0 to 10, 0 is no effect, 10 is complete control
# [23] = Postemergence, Rate 500 g/ha, scale of 0 to 10 where 0 is no effect and 10 is complete control
# [24] = Preemergence, Rate 62 g/ha, scale of 0 to 10 where 0 is no effect and 10 is complete control
# [25] = Preemergence, Rate 125 g/ha, scale of 0 to 10 where 0 is no effect and 10 is complete control
# [26] = Preemergence, Rate 250 g/ha, scale 0 to 10 (0 no effect, 10 complete control)
# [27] = Preemergence, Rate 500 g/ha, scale of 0 to 10 where 0 is no effect and 10 is complete control
# [28] = Postemergence, Rate 125 g/ha, scale of 0 to 10 where 0 is no effect and 10 is complete control
# [29] = Rate 62 g/ha, flood test species, Pre-emergence, visual evaluation after twelve to sixteen days
# [30] = Rate 125 g/ha, under heading Pre-emergence, flood test species, visual evaluation after twelve to sixteen days
# [31] = Rate 250 g/ha, Pre-emergence (flood test species), scale 0 to 10, 0 is no effect, 10 is complete control
# [32] = Rate 500 g/ha, Pre-emergence section of Table B, 0 to 10 scale (0 no effect, 10 complete control)
structure (smiles),measurement,setting,value
CC(C)N(C(=O)n1oc(=O)n(CCCC#N)c1=O)c1ccc(F)cc1 [Compound 647],"Plant response rating, Bedstraw",[1],0
same,"Plant response rating, Blackgrass",[2]; [21],6
same,Blackgrass plant response rating,[2]; [22],7
same,"Plant response rating, Blackgrass",[2]; [23],8
same,Blackgrass plant response rating,[2]; [24],7
same,Blackgrass plant response rating,[2]; [25],9
same,"Plant response rating, Blackgrass",[2]; [26],10
same,"Plant response rating, Blackgrass",[2]; [27],10
same,"Plant response rating, B. signalgrass",[3]; [21],4
same,"Plant response rating, B. signalgrass",[3]; [28],6
same,B. signalgrass plant response rating,[3]; [22],7
same,"Plant response rating, B. signalgrass",[3]; [23],8
same,B. signalgrass plant response rating,[3]; [24],3
same,B. signalgrass plant response rating,[3]; [25],7
same,"Plant response rating, B. signalgrass",[3]; [26],9
same,"Plant response rating, B. signalgrass",[3]; [27],10
same,"Plant response rating, Cocklebur",[4]; [21],0
same,Cocklebur plant response rating,[4]; [28],0
same,Cocklebur plant response rating,[4]; [22],4
same,"Plant response rating, Cocklebur",[4]; [23],4
same,Cocklebur plant response rating,[4]; [24],0
same,Cocklebur plant response rating,[4]; [25],0
same,"Plant response rating, Cocklebur",[4]; [26],1
same,"Plant response rating, Cocklebur",[4]; [27],7
same,"Plant response rating, Corn",[5]; [21],0
same,Corn plant response rating,[5]; [28],2
same,Corn plant response rating,[5]; [22],5
same,"Plant response rating, Corn",[5]; [23],6
same,Corn plant response rating,[5]; [24],0
same,Corn plant response rating,[5]; [25],3
same,"Plant response rating, Corn",[5]; [26],5
same,"Plant response rating, Corn",[5]; [27],10
same,"Plant response rating, Crabgrass",[6]; [21],7
same,Crabgrass plant response rating,[6]; [28],9
same,Crabgrass plant response rating,[6]; [22],9
same,"Plant response rating, Crabgrass",[6]; [23],9
same,Crabgrass plant response rating,[6]; [24],8
same,Crabgrass plant response rating,[6]; [25],8
same,"Plant response rating, Crabgrass",[6]; [26],9
same,"Plant response rating, Crabgrass",[6]; [27],9
same,"Plant response rating, Giant foxtail",[7]; [21],8
same,Giant foxtail plant response rating,[7]; [28],9
same,Giant foxtail plant response rating,[7]; [22],9
same,"Plant response rating, Giant foxtail",[7]; [23],9
same,Giant foxtail plant response rating,[7]; [24],9
same,Giant foxtail plant response rating,[7]; [25],10
same,"Plant response rating, Giant foxtail",[7]; [26],10
same,"Plant response rating, Giant foxtail",[7]; [27],10
same,"Plant response rating, Morningglory",[8]; [21],0
same,Morningglory plant response rating,[8]; [28],0
same,Morningglory plant response rating,[8]; [22],2
same,"Plant response rating, Morningglory",[8]; [23],6
same,Morningglory plant response rating,[8]; [24],0
same,Morningglory plant response rating,[8]; [25],0
same,"Plant response rating, Morningglory",[8]; [26],7
same,"Plant response rating, Morningglory",[8]; [27],7
same,"Plant response rating, Redroot pigweed",[9]; [21],0
same,Redroot pigweed plant response rating,[9]; [28],4
same,Redroot pigweed plant response rating,[9]; [24],10
same,Redroot pigweed plant response rating,[9]; [25],10
same,"Plant response rating, Redroot pigweed",[9]; [26],10
same,"Plant response rating, Redroot pigweed",[9]; [27],10
same,"Plant response rating, Rape",[10]; [21],0
same,Rape plant response rating,[10]; [28],0
same,"Plant response rating, Rape",[10]; [23],7
same,Rape plant response rating,[10]; [24],5
same,Rape plant response rating,[10]; [25],8
same,"Plant response rating, Rape",[10]; [26],10
same,"Plant response rating, Rape",[10]; [27],10
same,"Plant response rating, Soybean",[11]; [21],2
same,Soybean plant response rating,[11]; [28],3
same,Soybean plant response rating,[11]; [24],0
same,Soybean plant response rating,[11]; [25],0
same,"Plant response rating, Soybean",[11]; [26],1
same,"Plant response rating, Soybean",[11]; [27],1
same,"Plant response rating, Sugarbeets",[12]; [21],1
same,Sugarbeets plant response rating,[12]; [28],2
same,Sugarbeets plant response rating,[12]; [24],7
same,Sugarbeets plant response rating,[12]; [25],8
same,"Plant response rating, Sugarbeets",[12]; [26],8
same,"Plant response rating, Sugarbeets",[12]; [27],8
same,"Plant response rating, Velvetleaf",[13]; [21],5
same,Velvetleaf plant response rating,[13]; [28],5
same,Velvetleaf plant response rating,[13]; [24],6
same,Velvetleaf plant response rating,[13]; [25],8
same,"Plant response rating, Velvetleaf",[13]; [26],8
same,"Plant response rating, Velvetleaf",[13]; [27],9
same,"Plant response rating, Wheat",[14]; [21],0
same,Wheat plant response rating,[14]; [28],3
same,Wheat plant response rating,[14]; [24],1
same,Wheat plant response rating,[14]; [25],6
same,"Plant response rating, Wheat",[14]; [26],8
same,"Plant response rating, Wheat",[14]; [27],8
same,"Plant response rating, Wild oats",[15]; [21],0
same,Wild oats plant response rating,[15]; [28],0
same,Wild oats plant response rating,[15]; [24],5
same,Wild oats plant response rating,[15]; [25],8
same,"Plant response rating, Wild oats",[15]; [26],9
same,"Plant response rating, Wild oats",[15]; [27],10
same,"Plant response rating, Nutsedge",[16]; [21],0
same,Nutsedge plant response rating,[16]; [28],0
same,"Plant response rating, Nutsedge",[16]; [23],6
same,Nutsedge plant response rating,[16]; [24],0
same,Nutsedge plant response rating,[16]; [25],0
same,"Plant response rating, Rice (0 to 10 scale, 0 is no effect, 10 is complete control)",[17]; [29],0
same,"Rice plant response rating (0 to 10 scale, 0 is no effect, 10 is complete control)",[17]; [30],0
same,Rice plant response rating,[17]; [31],0
same,Rice plant response rating,[17]; [32],0
same,"Plant response rating, S. Flatsedge (0 to 10 scale, 0 is no effect, 10 is complete control)",[18]; [29],0
same,"S. Flatsedge plant response rating (0 to 10 scale, 0 is no effect, 10 is complete control)",[18]; [30],0
same,S. Flatsedge plant response rating,[18]; [31],0
same,S. Flatsedge plant response rating,[18]; [32],0
same,"Plant response rating, Ducksalad (0 to 10 scale, 0 is no effect, 10 is complete control)",[19]; [29],0
same,"Ducksalad plant response rating (0 to 10 scale, 0 is no effect, 10 is complete control)",[19]; [30],0
same,Ducksalad plant response rating,[19]; [31],0
same,Ducksalad plant response rating,[19]; [32],0
same,"Plant response rating, Barnyardgrass (0 to 10 scale, 0 is no effect, 10 is complete control)",[20]; [29],0
same,"Barnyardgrass plant response rating (0 to 10 scale, 0 is no effect, 10 is complete control)",[20]; [30],0
same,Barnyardgrass plant response rating,[20]; [31],0
same,Barnyardgrass plant response rating,[20]; [32],0
